Experiments:
[1] = target: KRas G12V (Homo sapiens, UniProt P01116, G12V); experiment: biochemical; details: Binding to KRas (IC50 nM) G12V, TR-FRET displacement, KRas G12V
[2] = target: KRas G12D (Homo sapiens, UniProt P01116, G12D); experiment: biochemical; details: Binding to KRas (IC50 nM) G12D, TR-FRET displacement, KRas G12D
[3] = test system: H727 cells; experiment: Inhibition of KRas-mediated phosphorylation of ERK (Cisbio HTRF pERK), H727 cells; format: cell-based; details: Homo sapiens; for IC50: NCI-H727, 3 h, 3 hr compound incubation
[4] = test system: PSN1 cells; experiment: Inhibition of KRas-mediated phosphorylation of ERK (Cisbio HTRF pERK), PSN1 cells; format: cell-based; details: Homo sapiens, PSN1, 3 h, 3 hr compound incubation
Method: (§1) Inhibition of KRas Phosphorylation of ERK (HTRF) by Exemplary Compounds of Formula (I) Cisbio HTRF Advanced pERK Assay Catalog #64AERPEH • Cells: MKN1, PSN1 • Procedure: • Day 1: Seed 6,000 cells/well -25 µl/well in 384-well white solid bottom plate; RPM1_10% FBS.

[5] = target: KRas G12R (Homo sapiens, UniProt P01116, G12R); experiment: biochemical; details: Binding to KRas (IC50 nM) G12R, TR-FRET displacement, KRas G12R
Sequence of KRas G12R (P01116 1-169 isoform P01116-2 G12R): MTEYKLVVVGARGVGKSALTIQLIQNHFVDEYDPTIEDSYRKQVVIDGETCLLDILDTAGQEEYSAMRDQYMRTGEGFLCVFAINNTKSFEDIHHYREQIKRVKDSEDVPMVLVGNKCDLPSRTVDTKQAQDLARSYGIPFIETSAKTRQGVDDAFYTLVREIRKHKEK

[6] = test system: MKN1 cells; experiment: Inhibition of KRas-mediated phosphorylation of ERK (Cisbio HTRF pERK), MKN1 cells; format: cell-based; details: Homo sapiens, MKN-1, 3 hr compound incubation
Method: as §1

[7] = test system: ASPC1 cells; experiment: Inhibition of KRas-mediated phosphorylation of ERK (Cisbio HTRF pERK), ASPC1 cells; format: cell-based; details: Homo sapiens, AsPC-1 cells; for IC50: ASPC1, 3 h, 3 hr compound incubation
[8] = test system: H460 cells; experiment: Inhibition of KRas-mediated phosphorylation of ERK (Cisbio HTRF pERK), H460 cells; format: cell-based; details: Homo sapiens, NCI-H460, single point at 100 nM, 3 hrs compound incubation
[9] = target: KRas G12C (Homo sapiens, UniProt P01116, G12C); format: binding; details: for inhibition at 0.01 µM: single point, 10 nM compound, read-out: Binding to KRas (% inhibition at 10 nM) G12C
Sequence of KRas G12C (P01116 1-169 isoform P01116-2 G12C): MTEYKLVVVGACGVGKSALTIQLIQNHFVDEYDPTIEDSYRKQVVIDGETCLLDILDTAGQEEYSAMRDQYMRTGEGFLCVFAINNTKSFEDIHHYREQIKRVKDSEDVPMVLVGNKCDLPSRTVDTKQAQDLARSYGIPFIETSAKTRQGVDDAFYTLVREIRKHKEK

[10] = test system: A549 cells; experiment: Inhibition of KRas-mediated phosphorylation of ERK (Cisbio HTRF pERK), A549 cells; format: cell-based; details: Homo sapiens, single point at 100 nM, 3 hrs compound incubation
[11] = test system: HCT116 cells; experiment: Inhibition of KRas-mediated phosphorylation of ERK (Cisbio HTRF pERK), HCT116 cells; format: cell-based; details: Homo sapiens, HCT-116, single point at 100 nM, 3 hrs compound incubation
[12] = target: KRas WT (Homo sapiens, UniProt P01116); experiment: KRas binding assay (TR-FRET displacement), KRas WT; details: for inhibition at 0.01 µM: single point, 10 nM compound
Sequence of KRas WT (P01116 1-169 isoform P01116-2): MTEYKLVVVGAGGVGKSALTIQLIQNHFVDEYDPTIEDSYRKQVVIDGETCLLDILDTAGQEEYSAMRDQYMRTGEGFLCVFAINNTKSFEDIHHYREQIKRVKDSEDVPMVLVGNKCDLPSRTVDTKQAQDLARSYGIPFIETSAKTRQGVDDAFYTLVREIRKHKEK

[13] = target: KRas G12S (Homo sapiens, UniProt P01116, G12S); format: binding; details: for inhibition at 0.01 µM: single point, 10 nM compound, read-out: Binding to KRas (% inhibition at 10 nM) G12S
Sequence of KRas G12S (P01116 1-169 isoform P01116-2 G12S): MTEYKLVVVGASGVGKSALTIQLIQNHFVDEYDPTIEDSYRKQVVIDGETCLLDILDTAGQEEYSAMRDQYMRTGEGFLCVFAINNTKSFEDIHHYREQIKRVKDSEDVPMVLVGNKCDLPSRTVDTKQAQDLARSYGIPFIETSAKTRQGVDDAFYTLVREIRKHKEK

[14] = target: KRas G13D (Homo sapiens, UniProt P01116, G13D); format: binding; details: for inhibition at 0.01 µM: single point, 10 nM compound, read-out: Binding to KRas (% inhibition at 10 nM) G13D
Sequence of KRas G13D (P01116 1-169 isoform P01116-2 G13D): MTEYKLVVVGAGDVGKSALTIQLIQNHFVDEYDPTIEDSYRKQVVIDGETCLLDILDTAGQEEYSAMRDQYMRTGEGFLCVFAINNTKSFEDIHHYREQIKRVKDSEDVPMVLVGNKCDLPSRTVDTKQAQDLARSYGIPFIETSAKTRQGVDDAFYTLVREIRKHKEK

[15] = test system: H358 cells; experiment: Inhibition of KRas-mediated phosphorylation of ERK (Cisbio HTRF pERK), H358 cells; format: cell-based; details: Homo sapiens, NCI-H358, single point at 100 nM, 3 hrs compound incubation
[16] = target: KRas G12A (Homo sapiens, UniProt P01116, G12A); format: binding; details: for inhibition at 0.01 µM: single point, 10 nM compound, read-out: Binding to KRas (% inhibition at 10 nM) G12A
Sequence of KRas G12A (P01116 1-169 isoform P01116-2 G12A): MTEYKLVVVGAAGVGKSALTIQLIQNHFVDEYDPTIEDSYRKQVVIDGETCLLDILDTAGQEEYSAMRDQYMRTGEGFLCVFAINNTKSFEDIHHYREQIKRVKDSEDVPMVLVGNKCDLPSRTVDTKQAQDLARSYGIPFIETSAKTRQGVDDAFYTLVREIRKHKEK

[17] = target: KRas Q61H (Homo sapiens, UniProt P01116, Q61H); experiment: KRas binding assay (TR-FRET displacement), KRas Q61H; details: for inhibition at 0.01 µM: single point, 10 nM compound
Sequence of KRas Q61H (P01116 1-169 isoform P01116-2 Q61H): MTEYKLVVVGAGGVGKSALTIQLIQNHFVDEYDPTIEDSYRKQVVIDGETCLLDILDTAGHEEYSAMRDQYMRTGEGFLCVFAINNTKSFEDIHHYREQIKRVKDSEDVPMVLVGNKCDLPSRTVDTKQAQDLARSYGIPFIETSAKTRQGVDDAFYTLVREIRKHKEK

Sequence of KRas G12V (P01116 1-169 isoform P01116-2 G12V): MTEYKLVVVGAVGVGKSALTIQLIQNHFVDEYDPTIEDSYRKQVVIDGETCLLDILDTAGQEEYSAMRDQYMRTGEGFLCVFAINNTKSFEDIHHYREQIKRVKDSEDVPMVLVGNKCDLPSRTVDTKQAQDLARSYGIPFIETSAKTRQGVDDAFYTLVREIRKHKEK
Sequence of KRas G12D (P01116 1-169 isoform P01116-2 G12D): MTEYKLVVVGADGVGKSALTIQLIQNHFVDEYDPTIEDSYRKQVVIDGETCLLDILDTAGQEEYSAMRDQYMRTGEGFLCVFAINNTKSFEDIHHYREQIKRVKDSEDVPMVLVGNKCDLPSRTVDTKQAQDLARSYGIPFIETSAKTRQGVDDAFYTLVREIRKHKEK

Structure (SMILES): CCc1c(F)ccc2cc(O)cc(N3CCc4c(nc(OC[C@@]56CCCN5C[C@H](F)C6)nc4N4CCCn5nc(C(=O)N(C6CC6)C6CC6)cc5C4)C3)c12 [Example 637, N,N-dicyclopropyl-5-(7-(8-ethyl-7-fluoro-3-hydroxynaphthalen-1-yl)-2-(((2R,7aS)-2-fluorotetrahydro-1H-pyrrolizin-7a(5H)-yl)methoxy)-5,6,7,8-tetrahydropyrido[3,4-d]pyrimidin-4-yl)-5,6,7,8-tetrahydro-4H-pyrazolo[1,5-a][1,4]diazepine-2-carboxamide]
- IC50 [1]: < 2 nM
- IC50 [2]: < 2 nM
- IC50 [3]: 9 nM
- IC50 [4]: 6000 nM
- IC50 [5]: < 2 nM
- IC50 [6]: 1.4 nM
- IC50 [7]: 11 nM

Structure (SMILES): CCc1c(F)ccc2cc(O)cc(N3CCc4c(nc(OC[C@@]56CCCN5C[C@H](F)C6)nc4N4CCCc5nc(C(=O)N(C)C)sc5C4)C3)c12 [Example 304, 5-(7-(8-ethyl-7-fluoro-3-hydroxynaphthalen-1-yl)-2-(((2R,7aS)-2-fluorohexahydro-1H-pyrrolizin-7a-yl)methoxy)-5,6,7,8-tetrahydropyrido[3,4-d]pyrimidin-4-yl)-N,N-dimethyl-5,6,7,8-tetrahydro-4H-thiazolo[5,4-c]azepine-2-carboxamide]
- IC50 [1]: 3 nM
- IC50 [2]: 3 nM
- inhibition at 0.1 µM [8]: 25%
- inhibition at 0.01 µM [9]: 83%
- IC50 ([3]; Cisbio pERK HTRF): 180 nM
- inhibition at 0.1 µM [10]: 33%
- inhibition at 0.1 µM [11]: -15%
- IC50 [5]: 3 nM
- inhibition at 0.01 µM [12]: 70%
- inhibition at 0.01 µM [13]: 77%
- inhibition at 0.01 µM [14]: 72%
- inhibition at 0.1 µM [15]: 43%
- inhibition at 0.01 µM [16]: 63%
- IC50 ([7]; Cisbio pERK HTRF): 54 nM
- inhibition at 0.01 µM [17]: 73%

Structure (SMILES): CC1(O)COCCN(c2nc(OCC34CCCN3CCC4)nc3c2CCN(c2cc(O)cc(Cl)c2C2CC2)C3)C1 (stereo not drawn) [Example 436, 4-(7-(3-chloro-2-cyclopropyl-5-hydroxyphenyl)-2-((tetrahydro-1H-pyrrolizin-7a(5H)-yl)methoxy)-5,6,7,8-tetrahydropyrido[3,4-d]pyrimidin-4-yl)-6-methyl-1,4-oxazepan-6-ol]
- IC50 [1]: 8 nM
- IC50 [2]: 7 nM
- inhibition at 0.1 µM [8]: -4%
- IC50 ([9]; TR-FRET displacement, read-out: Binding to KRas (IC50 nM) G12C): 8 nM
- IC50 ([3]; Cisbio pERK HTRF): 2950 nM
- inhibition at 0.1 µM ([3]; NCI-H727, single point at 100 nM, 3 hrs compound incubation): 12%
- inhibition at 0.1 µM [10]: 3%
- inhibition at 0.1 µM [11]: 5%
- IC50 [5]: 17 nM
- IC50 ([12]; TR-FRET displacement): 10 nM
- IC50 ([13]; TR-FRET displacement, read-out: Binding to KRas (IC50 nM) G12S): 10 nM
- IC50 ([14]; TR-FRET displacement, read-out: Binding to KRas (IC50 nM) G13D): 10 nM
- inhibition at 0.1 µM [15]: 10%
- IC50 ([16]; TR-FRET displacement, read-out: Binding to KRas (IC50 nM) G12A): 11 nM
- IC50 ([7]; Cisbio pERK HTRF): 1760 nM
- inhibition at 0.1 µM ([7]; ASPC1, single point at 100 nM, 3 hrs compound incubation): -12%
- IC50 ([17]; TR-FRET displacement): 10 nM

Structure (SMILES): CCc1c(F)ccc2cc(O)cc(N3CCc4c(nc(OC[C@@]56CCCN5C[C@H](F)C6)nc4N4CCCn5nc(CN(C)C(=O)N(C)C)cc5C4)C3)c12 [Example 288, 1-((5-(7-(8-ethyl-7-fluoro-3-hydroxynaphthalen-1-yl)-2-(((2R,7aS)-2-fluorohexahydro-1H-pyrrolizin-7a-yl)methoxy)-5,6,7,8-tetrahydropyrido[3,4-d]pyrimidin-4-yl)-5,6,7,8-tetrahydro-4H-pyrazolo[1,5-a][1,4]diazepin-2-yl)methyl)-1,3,3-trimethylurea]
- IC50 [1]: 6 nM
- IC50 [2]: 4 nM
- inhibition at 0.1 µM [8]: 3%
- inhibition at 0.01 µM [9]: 56%
- IC50 ([3]; Cisbio pERK HTRF): 189 nM
- inhibition at 0.1 µM [10]: 22%
- inhibition at 0.1 µM [11]: 17%
- IC50 [5]: 9 nM
- inhibition at 0.01 µM [12]: 38%
- inhibition at 0.01 µM [13]: 53%
- inhibition at 0.01 µM [14]: 40%
- inhibition at 0.1 µM [15]: 26%
- inhibition at 0.01 µM [16]: 38%
- IC50 ([7]; Cisbio pERK HTRF): 67 nM
- inhibition at 0.01 µM [17]: 33%

From patent publication US20250368649A1, “TETRAHYDROPYRIDOPYRIMIDINE PAN-KRAS INHIBITORS” (Mirati Therapeutics, Inc., priority 2022, published 2025)
